The source of these data is patent US20040077636A1, “Restricting reinstatement of drug use” (priority 2000, published 2004).

“Also recorded” adds a separate entry of the source.

For data set [1], the system named is heroin-addicted rats. The conditions noted are these: Euro. J. Neurosci. 12, 292-302, 2000; cited from earlier work.
The conditions of data set [2]: pre-treatment; literature reports; cited from earlier work.
The conditions of data set [3]: in vivo; cited from earlier work.
Data set [4] concerns imidazoline-type 1 receptors. To be noted: cited from earlier work.
Data set [5] relates to NE release. The conditions noted are these: doses employed in the present study; cited from earlier work.
For data set [6] the following is noted: humans; cited from earlier work.
Data set [7] has as its system Male Wistar rats. The data set can be described thus: Footshock stress-induced reinstatement of alcohol seeking. In kind it is in vivo. The conditions noted are these: for reinstatement of alcohol seeking (responses on the active lever after footshock): vs saline, p<0.05. The procedure:
Animals: Male Wistar rats (Charles River, Montreal; weighing about 150-200 g. at the start of the experiments) were individually housed. Food and water were freely available in the home cages for 23 h/day. Food was not available during the 30 to 60 min daily session (see below). The temperature was maintained at 21±1° C. and the lights were on from 7 a.m. to 7 p.m. Rats were initially trained to consume alcohol in a limited access procedure ([…], 1987). The rats were given access to an alcohol solution and water in modified Richter tubes for 30 min/day in drinking cages. Alcohol solutions were provided in escalating concentrations: 3% w/v for the first 5 days 6% for the next 8 days and 12% for the last 10-12 days. Rats that consumed less than 0.4 g/kg per session during the last 10-12 days were excluded. All procedures were done in accordance with the guidelines of the Canadian Council on Animals Care and the 'principle of laboratories animal care' (NIH publication No. 85-23, revised 1985), and were approved by the local Animal Care Committee. Apparatus: The alcohol self-administration system was built locally. Each operant chamber was equipped with two levers, symmetrically centered on the side panel. Responding on one lever (the active lever) activated the infusion pump (Razel Sci. Stamford, Conn., USA). […] During the infusion, a stimulus light above the active lever was turned on for 6 s. […] The grid floor of the operant cambers was connected to electric shock generators (Med Associates, Georgia, Vt., USA). Training and extinction of alcohol self-administration: Operant self-administration of alcohol was initiated on a fixed ration-1 schedule of reinforcement (FR-1, each lever press is reinforced) for 60 min per day for 5-7 days per week. Responding on the FR-1 schedule was maintained for 10-14 sessions. The requirement for alcohol delivery was then increased to FR-2 for five sessions. Subsequently, the schedule requirement was increased to an FR-3 schedule for 8-12 days until the rats obtained three days of stable drug taking (variability of less than 20% of the mean). During extinction sessions, presses on the previously active lever had no programmable consequences. […] Test for Reinstatement: Tests were conducted under extinction conditions. Intermittent footshock (0.8 mA; 0.5 s ON; a mean OFF period of 40 s; a range of 10-70 s) was administered for a period of 10 min just prior to the test sessions. Footshock was delivered through a scrambler to the stainless steel grid floor of the operant chambers. […] When the animals achieved extinction criterion, the effect of pre-treatment with lofexidine on footshock stress-induced reinstatement of alcohol seeking was determined as described above. […]

A short description of data set [8]: Footshock stress-induced reinstatement of cocaine seeking. It is filed as in vivo. To be noted: 0.150 mg/kg or 0.2 mg/kg.
The subject of data set [9] is Male Wistar rats. In words: Operant alcohol self-administration. The conditions noted are these: average of two consecutive sessions, vs saline. In kind it is in vivo. The procedure:
Animals: Male Wistar rats (Charles River, Montreal; weighing about 150-200 g. at the start of the experiments) were individually housed. Food and water were freely available in the home cages for 23 h/day. Food was not available during the 30 to 60 min daily session (see below). The temperature was maintained at 21±1° C. and the lights were on from 7 a.m. to 7 p.m. Rats were initially trained to consume alcohol in a limited access procedure (Linseman, 1987). The rats were given access to an alcohol solution and water in modified Richter tubes for 30 min/day in drinking cages. Alcohol solutions were provided in escalating concentrations: 3% w/v for the first 5 days 6% for the next 8 days and 12% for the last 10-12 days. Rats that consumed less than 0.4 g/kg per session during the last 10-12 days were excluded. All procedures were done in accordance with the guidelines of the Canadian Council on Animals Care and the ‘principle of laboratories animal care’ (NIH publication No. 85-23, revised 1985), and were approved by the local Animal Care Committee. […]
Analysis of variance with or without repeated measures were employed to analyse the data. […] In the first experiment, the average amounts of alcohol self-administered over a period of two days were used to quantify the effects of lofexidine treatment on alcohol self-administration. […]

The subject of data set [10] is Male Wistar rats. In words: Extinction of alcohol self-administration behaviour. It is filed as in vivo. To be noted: for responding on the active lever, second day of extinction: among the three groups. The procedure: Animals: Male Wistar rats (Charles River, Montreal; weighing about 150-200 g. at the start of the experiments) were individually housed. Food and water were freely available in the home cages for 23 h/day. Food was not available during the 30 to 60 min daily session (see below). The temperature was maintained at 21±1° C. and the lights were on from 7 a.m. to 7 p.m. Rats were initially trained to consume alcohol in a limited access procedure (Linseman, 1987). The rats were given access to an alcohol solution and water in modified Richter tubes for 30 min/day in drinking cages. Alcohol solutions were provided in escalating concentrations: 3% w/v for the first 5 days 6% for the next 8 days and 12% for the last 10-12 days. Rats that consumed less than 0.4 g/kg per session during the last 10-12 days were excluded. All procedures were done in accordance with the guidelines of the Canadian Council on Animals Care and the ‘principle of laboratories animal care’ (NIH publication No. 85-23, revised 1985), and were approved by the local Animal Care Committee.
Apparatus: The alcohol self-administration system was built locally. Each operant chamber was equipped with two levers, symmetrically centered on the side panel. Responding on one lever (the active lever) activated the infusion pump (Razel Sci. Stamford, Conn., USA). […] During the infusion, a stimulus light above the active lever was turned on for 6 s. […] The grid floor of the operant cambers was connected to electric shock generators (Med Associates, Georgia, Vt., USA).
Training and extinction of alcohol self-administration: Operant self-administration of alcohol was initiated on a fixed ration-1 schedule of reinforcement (FR-1, each lever press is reinforced) for 60 min per day for 5-7 days per week. Responding on the FR-1 schedule was maintained for 10-14 sessions. The requirement for alcohol delivery was then increased to FR-2 for five sessions. Subsequently, the schedule requirement was increased to an FR-3 schedule for 8-12 days until the rats obtained three days of stable drug taking (variability of less than 20% of the mean). […]

As to `Clc1cccc(Cl)c1N=C1NCCN1` [clonidine], in data set [1], the “foot-shock-induced reinstatement of heroin-seeking” value was “effective”. For the same compound, the alcohol consumption entry in [2] is “reduction in alcohol consumption”.

As to `N=C(N)NC(=O)Cc1c(Cl)cccc1Cl` [guanfacine], the alcohol consumption entry in data set [2] is given as “reduction in alcohol consumption”.

Consider `CC(Oc1c(Cl)cccc1Cl)C1=NCCN1` (stereo not drawn) [lofexidine, Lofexidine], for which the hypotensive effect entry in data set [3] is “minimal hypotensive effect”. Also, in data set [4], the “affinity for imidazoline-type 1 (I2) receptors” value is on record as “high affinity”. Moreover, the “stress induced NE release in the pre-frontal cortex and amygdala” value in data set [5] was “block”. The “adverse side effects compared with clonidine, in particular hypotensive effects” value in [6] is on record as “fewer adverse side effects”. Besides, the “reinstatement of alcohol seeking (responses on the active lever after footshock)” value in data set [7] (0.05 mg/kg IP 1 h before 10 min intermittent footshock), in data set [7] (0.1 mg/kg IP 1 h before 10 min intermittent footshock) and in data set [7] (0.2 mg/kg IP 1 h before 10 min intermittent footshock) was “significantly suppressed” in each case. The “reinstatement of alcohol seeking” value in [7] (doses ranging from 0.05 to 0.2 mg/kg, intermittent footshock stress) is on record as “completely suppressed”. Further, the “footshock stress-induced reinstatement of cocaine seeking” value in [8] is recorded as “attenuation; also recorded: suppressed”. The “alcohol self-administration (amount of alcohol self-administered during 1-hour session)” value in data set [9] (0.05 mg/kg IP 1 h before session) was “no significant differences; also recorded: did not reach statistical significance”; in data set [9] (0.1 mg/kg IP 1 h before session, p<0.05) it was “significantly lower; also recorded: significantly suppresses”. Also, the “responding on the active lever, second day of extinction” value in data set [10] (0.05 mg/kg IP daily) and in [10] (0.1 mg/kg IP daily) was “no significant differences” each time. For the same compound, the “responding on the active lever, first day of extinction” value in data set [10] (0.1 mg/kg IP daily 1 h before session, vs saline and lower dose group) is reported as “significantly lower; also recorded: significant decrease”.

For `Cc1csc(Cl)c1NC1=NCCN1` [tiamedine], the alcohol consumption entry in data set [2] is “reduction in alcohol consumption”.
